Target: T1, CFTR (F508del/MF-HBE cells) (Homo sapiens, UniProt P13569, DEL508-508)
T1 construct: human bronchial epithelial (HBE) cells derived from CF subjects heterozygous for F508del and a minimal function CFTR mutation; endogenous in cells; host or cells: primary human bronchial epithelial cells from CF subjects (F508del/MF genotype), differentiated at air-liquid interface
Test: Ussing chamber assay of CFTR-mediated short-circuit currents (potentiator identification)
Type: cell-based
Conditions: incubated 18-24 hours at 37° C. with 10 μM (14S)-8-[3-(2-{dispiro[2.0.2.1]heptan-7-yl}ethoxy)-1H-pyrazol-1-yl]-... trione (Compound VII), 20% human serum, read-out: CFTR-modulating activity EC50
Experimental: Ussing Chamber Assay of CFTR-mediated short-circuit currents
Ussing chamber experiments were performed using human bronchial epithelial (HBE) cells derived from CF subjects heterozygous for F508del and a minimal function CFTR mutation (F508del/MF-HBE) and cultured as previously described (Neuberger T, Burton B, Clark H, Van Goor F Methods Mol Biol 2011:741:39-54). After four days the apical media was removed, and the cells were grown at an air liquid interface for >14 days prior to use.
To isolate the CFTR-mediated short-circuit (ISC) current, F508del/MF-HBE grown on Costar® Snapwell™ cell culture inserts were mounted in an Ussing chamber and the transepithelial ISC was measured under voltage-clamp recording conditions (Vhold=0 mV) at 37° C. The basolateral solution contained (in mM) 145 NaCl, 0.83 K2HPO4, 3.3 KH2PO4, 1.2 MgCl2, 1.2 CaCl2), 10 Glucose, 10 HEPES (pH adjusted to 7.4 with NaOH) and the apical solution contained (in mM) 145 NaGluconate, 1.2 MgCl2, 1.2 CaCl2), 10 glucose, 10 HEPES (pH adjusted to 7.4 with NaOH) and 30 μM amiloride to block the epithelial sodium channel. […] The CFTR-mediated ISC (μA/cm^2) for each condition was determined from the peak forskolin response to the steady-state current following inhibition.
The activity of the CFTR potentiator compounds on the CFTR-mediated ISC was determined in Ussing chamber studies as described above. […]

T1 sequence (P13569 with tags, fused parts or gaps DEL508-508): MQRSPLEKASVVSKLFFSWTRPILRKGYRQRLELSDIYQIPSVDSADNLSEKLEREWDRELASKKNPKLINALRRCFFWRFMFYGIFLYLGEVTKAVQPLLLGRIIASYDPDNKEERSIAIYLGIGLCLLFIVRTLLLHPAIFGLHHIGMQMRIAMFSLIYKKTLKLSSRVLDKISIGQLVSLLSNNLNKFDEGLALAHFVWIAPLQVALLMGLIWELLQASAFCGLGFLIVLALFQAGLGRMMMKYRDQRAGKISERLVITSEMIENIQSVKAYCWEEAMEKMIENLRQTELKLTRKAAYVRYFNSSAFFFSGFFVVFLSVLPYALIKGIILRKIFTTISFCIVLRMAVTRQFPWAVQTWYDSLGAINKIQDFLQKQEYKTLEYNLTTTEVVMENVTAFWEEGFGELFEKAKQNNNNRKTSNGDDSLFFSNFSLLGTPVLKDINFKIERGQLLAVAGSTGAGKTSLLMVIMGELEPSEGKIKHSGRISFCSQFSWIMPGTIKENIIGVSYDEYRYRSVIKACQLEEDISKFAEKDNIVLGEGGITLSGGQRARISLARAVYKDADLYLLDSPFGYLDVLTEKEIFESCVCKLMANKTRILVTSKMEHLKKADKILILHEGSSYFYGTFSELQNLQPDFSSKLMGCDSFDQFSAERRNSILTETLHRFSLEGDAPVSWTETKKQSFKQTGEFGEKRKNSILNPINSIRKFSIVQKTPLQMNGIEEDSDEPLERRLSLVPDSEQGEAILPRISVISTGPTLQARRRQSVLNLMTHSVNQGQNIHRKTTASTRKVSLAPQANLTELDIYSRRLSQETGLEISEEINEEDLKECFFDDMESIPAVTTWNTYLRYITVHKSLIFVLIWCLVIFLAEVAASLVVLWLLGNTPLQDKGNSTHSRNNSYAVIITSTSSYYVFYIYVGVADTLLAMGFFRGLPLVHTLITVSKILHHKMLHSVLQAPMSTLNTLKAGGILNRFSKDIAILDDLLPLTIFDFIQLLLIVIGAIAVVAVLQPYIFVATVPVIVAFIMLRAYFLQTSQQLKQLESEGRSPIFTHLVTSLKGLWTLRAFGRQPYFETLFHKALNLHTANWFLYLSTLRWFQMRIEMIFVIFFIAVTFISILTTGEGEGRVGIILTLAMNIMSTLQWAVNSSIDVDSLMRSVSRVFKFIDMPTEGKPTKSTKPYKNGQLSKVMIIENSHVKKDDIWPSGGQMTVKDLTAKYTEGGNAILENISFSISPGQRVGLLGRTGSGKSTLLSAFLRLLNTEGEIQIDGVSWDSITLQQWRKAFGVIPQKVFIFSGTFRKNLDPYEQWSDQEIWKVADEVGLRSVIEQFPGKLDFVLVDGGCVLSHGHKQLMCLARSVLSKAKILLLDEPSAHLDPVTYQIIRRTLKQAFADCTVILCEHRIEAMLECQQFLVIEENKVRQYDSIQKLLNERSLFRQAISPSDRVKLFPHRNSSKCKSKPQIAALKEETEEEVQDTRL

EC50: < 500 nM
Structure (SMILES): CC1(C)CCCCC[C@](O)(C(F)(F)F)C2=NN=C(O2)c2nc(c(C(F)(F)F)cc2N)N1 [Compound I, (6R)-17-amino-12,12-dimethyl-6,15-bis(trifluoromethyl)-19-oxa-3,4,13,18-tetrazatricyclo[12.3.1.12,5]nonadeca-1(18),2,4,14,16-pentaen-6-ol]
